From ChEMBL document CHEMBL1140090, “Discovery of orally bioavailable 1,3,4-trisubstituted 2-oxopiperazine-based melanocortin-4 receptor agonists as potential antiobesity agents” (J Med Chem, 2008)

Experiments:
in vitro [1] = conditions: human, Caco-2
in vitro [2] = conditions: human, Caco-2; remark: listed apart in the source

Structure (SMILES) | Papp (in vitro [1]) | Papp A→B (in vitro [2])
CNC(=O)[C@H](Cc1ccc2ccccc2c1)N1CCN(C(=O)[C@H](N)Cc2ccc(F)cc2)[C@@H](CCNC(=N)N)C1=O | 0.333 ×10⁻⁶ cm/s | 0.333 ×10⁻⁶ cm/s
C=CC[C@H]1C(=O)N([C@@H](Cc2ccc3ccccc3c2)C(=O)NC)CCN1C(=O)[C@H](N)Cc1ccc(F)cc1 | 15.2 ×10⁻⁶ cm/s | 6.5 ×10⁻⁶ cm/s
